Data from publication PMC11173529, “Structure–Activity Relationship Studies in a Series of Xanthine Inhibitors of SLACK Potassium Channels” (Molecules, 2024).

Target: T1, KV2.1 (Homo sapiens, UniProt Q14721)
T1 construct: expressed in transfected cells; host or cells: HEK293
T1 sequence (Q14721 1-858): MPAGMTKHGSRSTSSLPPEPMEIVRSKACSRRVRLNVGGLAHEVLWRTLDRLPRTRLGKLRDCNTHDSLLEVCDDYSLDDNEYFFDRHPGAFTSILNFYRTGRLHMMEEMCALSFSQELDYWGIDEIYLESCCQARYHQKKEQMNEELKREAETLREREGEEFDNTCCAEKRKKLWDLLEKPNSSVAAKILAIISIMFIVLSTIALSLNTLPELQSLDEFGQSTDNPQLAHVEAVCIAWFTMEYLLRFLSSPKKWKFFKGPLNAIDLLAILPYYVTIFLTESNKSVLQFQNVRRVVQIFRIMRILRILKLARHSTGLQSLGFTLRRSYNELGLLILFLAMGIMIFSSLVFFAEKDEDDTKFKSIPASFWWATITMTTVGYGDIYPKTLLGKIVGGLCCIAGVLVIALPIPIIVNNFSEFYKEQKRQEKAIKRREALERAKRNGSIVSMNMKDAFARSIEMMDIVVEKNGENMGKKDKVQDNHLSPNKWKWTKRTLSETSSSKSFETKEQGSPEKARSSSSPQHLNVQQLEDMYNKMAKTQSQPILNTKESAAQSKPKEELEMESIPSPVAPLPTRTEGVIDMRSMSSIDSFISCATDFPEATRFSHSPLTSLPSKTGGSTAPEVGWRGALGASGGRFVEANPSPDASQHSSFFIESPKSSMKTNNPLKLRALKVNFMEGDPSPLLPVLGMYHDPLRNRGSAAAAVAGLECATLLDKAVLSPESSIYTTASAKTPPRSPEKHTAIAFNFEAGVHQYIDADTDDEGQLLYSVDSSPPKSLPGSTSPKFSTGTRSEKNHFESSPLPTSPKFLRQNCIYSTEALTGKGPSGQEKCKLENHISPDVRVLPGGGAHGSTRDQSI
Assay: Tl+-flux selectivity panel in HEK-293 cells: KV2.1
Format: cell-based
Details: HEK293, 10 µM test compound, relative to control guangxitoxin 1E, read-out: Percent Inhibition ± SEM
Description: With a handful of analogs that offered improved SLACK potency relative to hit compound 8, we next proceeded to investigate the ancillary pharmacology of such compounds, both with respect to other Slo family members as well as versus a spectrum of diverse ion channels (Table 5). Thus, we screened four compounds (32, 48, 70, and 71) at 10 µM in our in-house selectivity panel of Tl^+-flux assays in HEK-293 cells stably expressing the target of interest. […] Some valuable SAR was noted as well. […] Reduction of inhibition at Maxi-K α1/β4 also followed. This SAR will be important to bear in mind for continued optimization within this series. […] Of particular note is the lack of significant hERG activity in this series, as activity versus that counter-target has been an issue with other SLACK inhibitors.
Stably transfected monoclonal HEK293 cell lines expressing Slick, Maxi-K α1/β3, Maxi-K α1/β4, CaV3.2, GIRK 1/2, KV2.1, KV7.2, NaV1.7, and TASK-1 were generated as previously described. Stably transfected monoclonal HEK293 cell lines expressing hERG were generated as previously described. CHO-K1 cells expressing human Slack and disease-associated human Slack mutations, G288S and A934T, were generated by transfecting a PiggyBac TRE mammalian expression vector (VectorBuilder, Chicago, IL, USA) containing KCNT1. FuGENE 6 (Promega, Madison, WI, USA) transfection reagent and protocol, together with Opti-MEM (Thermo Fisher Scientific, Walkham, MA, USA), were utilized.
The Tl^+ flux assays were conducted as previously described with modifications optimized for individual cell lines as described below. Following removal of cell culture media, cells were loaded with Tl^+-sensitive dye loading solution containing Thallos-AM (ION Biosciences, San Marcos, TX, USA), 1.25 mM Probenecid, and 0.3% Pluronic F-127 (MilliporeSigma, Burlington, MA, USA), in assay buffer comprised of Hanks Balanced Salt Solution (HBSS) (Thermo Fisher Scientific, Waltham, MA, USA) and 20 mM HEPES (Corning, Corning, NY, USA) at room temperature for one-hour. Dye loading solution was replaced with 20 μL/well of assay buffer prior to assaying. Cell plates were then loaded onto a Panoptic kinetic imaging plate reader (WaveFront Biosciences, Franklin, TN, USA). Data were acquired at 5 Hz (excitation 482 ± 35 nm, emission 536 ± 40 nm) for 10 s, at which time 20 μL/well of test compounds in assay buffer at 2-fold above the desired final concentration was added and allowed to incubate for 120 s. Next, 10 μL/well of Tl^+ stimulus buffer (129 mM Na gluconate, 1.2 mM CaSO4, 1 MgSO4, 1 mM Na2HPO4, 4.17 mM NaHCO3, 5.56 mM glucose, 2.5 mM Tl2SO4, and 10 mM HEPES pH 7.3) was added. Imaging was concluded after an additional 120 s.

| SMILES | inhibition at 10 µM |
| --- | --- |
| CCCCN(Cc1ccccc1)c1nc2c(c(=O)n(Cc3ccccc3)c(=O)n2C)n1C [Analog 70] | 35 ± 1.3% |
| CN(Cc1cccc(F)c1)c1nc2c(c(=O)n(Cc3ccccc3)c(=O)n2C)n1C [Analog 48] | 51 ± 1.2% |
| Cn1c(N(Cc2ccccc2)CC2CC2)nc2c1c(=O)n(Cc1ccccc1)c(=O)n2C [Analog 71] | 33 ± 1.2% |
| COc1cccc(Cn2c(=O)c3c(nc(N(C)Cc4ccccc4)n3C)n(C)c2=O)c1 [Analog 32] | 51 ± 1.5% |
